Laboratory results taken from US8114865B2, “Indazole derivatives as kinase inhibitors for the treatment of cancer” (Nerviano Medical Sciences S.R.L., priority 2006, dated 2012).

Biological target: IGF-1R (Homo sapiens, UniProt P08069)
Assay: Western blot analysis of receptor phosphorylation following stimulation with IGF-1 in MCF-7 human breast cancer cells
Format: cell-based
Parameters: endogenous in cells; host or cells: MCF-7 (ATCC# HTB-22)
Conditions: starved MCF7 cells, 10 nM IGF1, increasing concentrations of compound, FIG. 1
Procedure: [formula] where νb is the baseline velocity, v is the observed reaction velocity, vo is the velocity in the absence of inhibitors, and [I] is the inhibitor concentration. Cell-Based Assays for Inhibitors of IGF-1R Kinase Activity Western Blot Analysis of Receptor Phosphorylation Following Stimulation with IGF-1 in MCF-7 Human Breast Cancer Cells
MCF-7 cells (ATCC# HTB-22) were seeded in 12-well tissue culture plates at 2×10^5 cells/well in E-MEM medium (MEM+Earle's BSS+2 mM glutamine+0.1 mM non-essential amino acids)+10% FCS, and incubated overnight at 37° C., 5% CO2, 100% relative humidity. Cells were then starved by replacing E-MEM+10% FCS with E-MEM+0.1% BSA, and incubating overnight. After this incubation, wells were treated with desired concentrations of compound for 1 hour at 37° C., and were then stimulated with 10 nM recombinant human IGF-1 (Invitrogen, Carlsbad, Calif., USA) for 10 minutes at 37° C. Cells were then washed with PBS and lysed in 100 microL/well cell lysis buffer (M-PER Mammalian Protein Extraction Reagent [Product #78501, Pierce, Rockford, Ill., USA]+10 mM EDTA+Protease inhibitor cocktail [Sigma-Aldrich product #P8340]+phosphatase inhibitor cocktail [Sigma-Aldrich products #P2850+#P5726]). Cell lysates were cleared by centrifugation at 10,000×g for 5 minutes, and 10 microg/lane of cleared lysate protein were run on NuPAGE gels (NuPAGE 4-12% 10-lane Bis-Tris gels, Invitrogen) with MOPS running buffer, then transferred onto Hybond-ECL nitrocellulose filters (Amersham Biosciences, Little Chalfont, Buckinghamshire, UK) using Mini PROTEAN II chambers (Bio-Rad Laboratories, Hercules, Calif., USA). […]

IGF-1R, sequence (P08069 31-1367): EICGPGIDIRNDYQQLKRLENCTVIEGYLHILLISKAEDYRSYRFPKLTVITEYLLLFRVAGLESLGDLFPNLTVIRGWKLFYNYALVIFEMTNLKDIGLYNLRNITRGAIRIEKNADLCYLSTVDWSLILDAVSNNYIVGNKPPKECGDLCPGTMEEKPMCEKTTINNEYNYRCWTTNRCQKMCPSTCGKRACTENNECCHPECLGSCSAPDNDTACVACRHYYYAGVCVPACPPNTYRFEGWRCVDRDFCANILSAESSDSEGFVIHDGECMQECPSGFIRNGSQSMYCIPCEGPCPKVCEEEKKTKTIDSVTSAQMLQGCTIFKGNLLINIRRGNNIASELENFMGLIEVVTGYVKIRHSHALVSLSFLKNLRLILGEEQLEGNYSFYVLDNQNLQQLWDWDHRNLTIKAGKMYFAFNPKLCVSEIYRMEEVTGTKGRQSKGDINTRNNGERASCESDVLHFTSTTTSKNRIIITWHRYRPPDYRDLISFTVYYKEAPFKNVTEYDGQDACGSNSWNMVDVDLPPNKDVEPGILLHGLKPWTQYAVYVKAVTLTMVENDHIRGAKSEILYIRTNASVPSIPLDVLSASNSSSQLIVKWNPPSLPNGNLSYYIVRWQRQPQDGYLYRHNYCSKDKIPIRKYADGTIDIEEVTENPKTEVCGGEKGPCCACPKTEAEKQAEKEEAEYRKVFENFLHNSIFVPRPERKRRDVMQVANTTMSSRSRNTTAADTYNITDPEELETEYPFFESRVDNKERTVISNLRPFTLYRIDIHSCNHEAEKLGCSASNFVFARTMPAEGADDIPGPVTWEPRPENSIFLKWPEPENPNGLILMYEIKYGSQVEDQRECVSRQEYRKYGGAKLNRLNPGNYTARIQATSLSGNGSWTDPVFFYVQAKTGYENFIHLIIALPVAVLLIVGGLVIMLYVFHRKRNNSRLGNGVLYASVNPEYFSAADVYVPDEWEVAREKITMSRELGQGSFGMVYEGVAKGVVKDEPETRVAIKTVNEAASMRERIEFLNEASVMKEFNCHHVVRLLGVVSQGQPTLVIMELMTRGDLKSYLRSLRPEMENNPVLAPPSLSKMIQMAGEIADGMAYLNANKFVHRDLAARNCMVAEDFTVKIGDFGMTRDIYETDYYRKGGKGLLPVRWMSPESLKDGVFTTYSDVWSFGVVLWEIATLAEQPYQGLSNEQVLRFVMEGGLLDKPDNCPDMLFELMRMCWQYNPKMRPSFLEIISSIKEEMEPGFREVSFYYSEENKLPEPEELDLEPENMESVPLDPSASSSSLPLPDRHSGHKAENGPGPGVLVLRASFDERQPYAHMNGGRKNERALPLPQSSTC

| Compound | inhibition of IGF1-induced IGF1R auto-phosphorylation |
| --- | --- |
| CN1CCN(c2ccc(C(=O)Nc3n[nH]c4ccc(S(=O)(=O)c5ccccc5)cc34)cc2)CC1 [Compound 1, N-(5-Benzenesulfonyl-1H-indazol-3-yl)-4-(4-methyl-piperazin-1-yl)-benzamide] | inhibition of IGF1-induced IGF1R auto-phosphorylation |
| CN1CCN(c2ccc(C(=O)Nc3n[nH]c4ccc(S(=O)(=O)c5ccccc5)cc34)c(NC(=O)c3ccc[nH]3)c2)CC1 [Compound 33, 1H-pyrrole-2-carboxylic acid [2-(5-benzenesulfonyl-1H-indazol-3-ylcarbamoyl)-5-(4-methyl-piperazin-1-yl)-phenyl]amide] | inhibition of IGF1-induced IGF1R auto-phosphorylation |
| CN1CCN(c2ccc(C(=O)Nc3n[nH]c4ccc(S(=O)(=O)c5ccccc5)cc34)c(NC(=O)[C@@H]3CCCO3)c2)CC1 [Compound 36, (S)-Tetrahydro-furan-2-carboxylic acid [2-(5-benzenesulfonyl-1H-indazol-3-ylcarbamoyl)-5-(4-methyl-piperazin-1-yl)-phenyl]-amide] | inhibition of IGF1-induced IGF1R auto-phosphorylation |
